Test results taken from patent US9932331B2, “Phenyl tetrahydroisoquinoline compound substituted with heteroaryl” (TAISHO PHARMACEUTICAL CO., LTD, priority 2014, dated 2018).
Where a name gives a salt, the structure may show the parent alone.

Assays:
human NHE3 = target: T1, human NHE3 (Homo sapiens, UniProt P48764); experiment: NHE3 inhibition test (recovery of intracellular pH in cell line stably expressing human NHE3); format: cell-based; details: OK cells deficient in endogenous NHE stably expressing human NHE3; BCECF fluorescence, initial rate of pH recovery; read-out: human NHE3 inhibitory activity IC50
T1 sequence (P48764 26-834): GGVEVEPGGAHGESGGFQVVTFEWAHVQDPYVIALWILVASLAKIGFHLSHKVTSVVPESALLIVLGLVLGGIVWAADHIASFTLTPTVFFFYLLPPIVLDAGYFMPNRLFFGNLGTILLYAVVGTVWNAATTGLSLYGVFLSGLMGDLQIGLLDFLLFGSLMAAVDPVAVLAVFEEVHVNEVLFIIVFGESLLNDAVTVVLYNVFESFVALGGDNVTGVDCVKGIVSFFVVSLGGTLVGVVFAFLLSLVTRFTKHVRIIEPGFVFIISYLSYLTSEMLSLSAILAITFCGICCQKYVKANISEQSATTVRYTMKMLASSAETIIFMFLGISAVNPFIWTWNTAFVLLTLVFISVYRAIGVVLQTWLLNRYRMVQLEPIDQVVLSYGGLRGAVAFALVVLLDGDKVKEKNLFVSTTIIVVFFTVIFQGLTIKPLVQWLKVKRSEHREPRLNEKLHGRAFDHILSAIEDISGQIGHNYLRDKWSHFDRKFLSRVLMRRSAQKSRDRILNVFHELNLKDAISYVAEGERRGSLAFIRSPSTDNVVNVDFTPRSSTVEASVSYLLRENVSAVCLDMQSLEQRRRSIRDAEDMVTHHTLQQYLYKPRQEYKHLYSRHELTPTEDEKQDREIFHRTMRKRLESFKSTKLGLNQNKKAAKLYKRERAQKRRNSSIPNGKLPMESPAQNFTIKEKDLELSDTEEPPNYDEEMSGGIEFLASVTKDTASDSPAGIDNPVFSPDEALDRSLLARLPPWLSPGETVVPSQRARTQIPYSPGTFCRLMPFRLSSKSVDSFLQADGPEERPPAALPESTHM
Summary of the method: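 Opossum kidney cells lacking endogenous NHE, stably expressing human NHE3, loaded with BCECF-AM and acid-loaded by NH4Cl washout. Compound in Na-free buffer, then Na-containing buffer (pH 7.4) added; initial pH-recovery rate by BCECF fluorescence, IC50 versus no-compound recovery.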

SD rat = experiment: 32P-phosphate oral loading test using SD rat (phosphorus absorption inhibitory effect); format: in vivo; details: SD male rats, plasma radioactivity 30 minutes after 32P-phosphate solution, vs control group; for inhibition in vivo at 3 mg/kg: Rattus norvegicus, 0.5 h, read-out: Rate of inhibition of phosphate absorption
Experimental: Phosphorus Absorption Inhibitory Effect of the Compound of the Present Invention in ^32P-Phosphate Oral Loading Test Using SD Rat
8-week-old SD male rats (Japan SLC, Inc.) were used as laboratory animals. Each test compound was suspended or dissolved at a concentration of 0.2 mg/mL or 0.6 mg/mL in Japanese Pharmacopoeia water for injection (manufactured by Hikari Pharmaceutical Co., Ltd.) and orally administered to each rat at a dose of 5 ml/kg body weight. Japanese Pharmacopoeia water for injection was administered at the same dose as above to a control group. 5 minutes after the administration of the test compound or water for injection, a phosphate solution (1.3 mM NaH2PO4) containing 32P-phosphate (PerkinElmer Inc.) was administered thereto at a dose of 5 ml/kg. 30 minutes after the administration of the phosphate solution, blood was collected from the tail vein, and the blood sample was immediately mixed with EDTA-2K (manufactured by Dojindo Laboratories). Then, the mixture was centrifuged at 3000 rpm at 4° C. for 10 minutes to recover plasma.
The radioactivity in 100 μL of the plasma was measured using a liquid scintillation counter and used as a phosphate absorption count. The radioactivity in the plasma of the control group was used as a control, and the rate of inhibition of phosphate absorption was determined according to the following expression: Rate of inhibition of phosphate absorption (%)=(1−Phosphate absorption count of the test compound administration group/Phosphate absorption count of the control group)×100 (2) Results

SMILES | IC50 (human NHE3) [nM] | inhibition in vivo at 3 mg/kg (SD rat; oral dose 3 mg/kg) [%] | Rate of inhibition of phosphate absorption (SD rat; oral dose 1 mg/kg) [%] | Rate of inhibition of phosphate absorption (SD rat; oral dose 3 mg/kg) [%]
CN1Cc2c(Cl)cc(Cl)cc2[C@H](c2cccc(-c3cn(CCOCCOCCNC(=O)NCCCCNC(=O)NCCOCCOCCn4cnc(-c5cccc([C@@H]6CN(C)Cc7c(Cl)cc(Cl)cc76)c5)c4)cn3)c2)C1 [Example 7-15, 1,1′-Butane-1,4-diylbis[3-(2-{2-[2-(4-{3-[(4S)-6,8-dichloro-2-methyl-1,2,3,4-tetrahydroisoquinolin-4-yl]phenyl}-1H-imidazol-1-yl)ethoxy]ethoxy}ethyl)urea]hydrochloride] | 8.1 | 36 |  | 
CN1Cc2c(Cl)cc(Cl)cc2[C@H](c2cccc(-c3cc(NCCOCCOCCOCCNC(=O)Nc4ccc(NC(=O)NCCOCCOCCOCCNc5cc(-c6cccc([C@@H]7CN(C)Cc8c(Cl)cc(Cl)cc87)c6)ncn5)cc4)ncn3)c2)C1 [Example 7-16, 1,1′-Benzene-1,4-diylbis(3-{2-[2-(2-{2-[(6-{3-[(4S)-6,8-dichloro-2-methyl-1,2,3,4-tetrahydroisoquinolin-4-yl]phenyl}pyrimidin-4-yl)amino]ethoxy}ethoxy)ethoxy]ethyl}urea) hydrochloride] | 16.6 | 34 |  | 
CN1Cc2c(Cl)cc(Cl)cc2[C@H](c2cccc(-c3ccc(C(=O)NCCOCCOCCNC(=O)NCCCCNC(=O)NCCOCCOCCNC(=O)c4ccc(-c5cccc([C@@H]6CN(C)Cc7c(Cl)cc(Cl)cc76)c5)cn4)nc3)c2)C1 [Example 7-18, N,N′-(10,17-Dioxo-3,6,21,24-tetraoxa-9,11,16,18-tetraazahexacosane-1,26-diyl)bis(5-{3-[(4S)-6,8-dichloro-2-methyl-1,2,3,4-tetrahydroisoquinolin-4-yl]phenyl}pyridine-2-carboxamide) hydrochloride] | 5.6 | 49 |  | 
CN1Cc2c(Cl)cc(Cl)cc2[C@H](c2cccc(-c3cc(NCCOCCOCCOCCNC(=O)NCCCCNC(=O)NCCOCCOCCOCCNc4cnnc(-c5cccc([C@@H]6CN(C)Cc7c(Cl)cc(Cl)cc76)c5)c4)cnn3)c2)C1 [Example 7-19, 1,1′-Butane-1,4-diylbis(3-{2-[2-(2-{2-[(6-{3-[(4S)-6,8-dichloro-2-methyl-1,2,3,4-tetrahydroisoquinolin-4-yl]phenyl}pyridazin-4-yl)amino]ethoxy}ethoxy)ethoxy]ethyl}urea) hexahydrochloride] | 17.7 | 19 |  | 
CN1Cc2c(Cl)cc(Cl)cc2[C@H](c2cccc(-c3cn(CCOCCOCCOCCNC(=O)Nc4ccc(NC(=O)NCCOCCOCCOCCn5cc(-c6cccc([C@@H]7CN(C)Cc8c(Cl)cc(Cl)cc87)c6)nn5)cc4)nn3)c2)C1 [Example 7-24, 1,1′-Benzene-1,4-diylbis{3-[2-(2-{2-[2-(4-{3-[(4S)-6,8-dichloro-2-methyl-1,2,3,4-tetrahydroisoquinolin-4-yl]phenyl}-1H-1,2,3-triazol-1-yl)ethoxy]ethoxy}ethoxy)ethyl]urea}hydrochloride] | 5.6 | 31 |  | 
CN1Cc2c(Cl)cc(Cl)cc2[C@H](c2cccc(-c3nnn(CCOCCOCCOCCOCCNC(=O)NCCCCNC(=O)NCCOCCOCCOCCOCCn4nnc(-c5cccc([C@@H]6CN(C)Cc7c(Cl)cc(Cl)cc76)c5)n4)n3)c2)C1 [Example 7-29, 1,1′-Butane-1,4-diylbis {3-[14-(5-{3-[(4S)-6,8-dichloro-2-methyl-1,2,3,4-tetrahydroisoquinolin-4-yl]phenyl}-2H-tetrazol-2-yl)-3,6,9,12-tetraoxatetradec-1-yl]urea}hydrochloride] | 6.9 | 10 |  | 
CN1Cc2c(Cl)cc(Cl)cc2[C@H](c2cccc(-c3nnn(CCOCCOCCOCCNC(=O)NCCCCNC(=O)NCCOCCOCCOCCn4nnc(-c5cccc([C@@H]6CN(C)Cc7c(Cl)cc(Cl)cc76)c5)n4)n3)c2)C1 [Example 7-30, 1,1′-Butane-1,4-diylbis {3-[2-(2-{2-[2-(5-{3-[(4S)-6,8-dichloro-2-methyl-1,2,3,4-tetrahydroisoquinolin-4-yl]phenyl}-2H-tetrazol-2-yl)ethoxy]ethoxy}ethoxy)ethyl]urea}hydrochloride] | 2.8 | 28 |  | 
CN1Cc2c(Cl)cc(Cl)cc2[C@H](c2cccc(-c3cncc(NCCOCCOCCOCCNC(=O)NCCCCNC(=O)NCCOCCOCCOCCNc4cncc(-c5cccc([C@@H]6CN(C)Cc7c(Cl)cc(Cl)cc76)c5)n4)n3)c2)C1 [Example 7-33, 1,1′-Butane-1,4-diylbis(3-{2-[2-(2-{2-[(6-{3-[(4S)-6,8-dichloro-2-methyl-1,2,3,4-tetrahydroisoquinolin-4-yl]phenyl}pyrazin-2-yl)amino]ethoxy}ethoxy)ethoxy]ethyl}urea) hexahydrochloride] | 8.6 | -1 |  | 
CN1Cc2c(Cl)cc(Cl)cc2[C@H](c2cccc(-c3cn(CCOCCOCCOCCOCCOCCNC(=O)NCCCCNC(=O)NCCOCCOCCOCCOCCOCCn4cc(-c5cccc([C@@H]6CN(C)Cc7c(Cl)cc(Cl)cc76)c5)nn4)nn3)c2)C1.Cl [Example 7-39, 1,1′-Butane-1,4-diylbis {3-[17-(4-{3-[(4S)-6,8-dichloro-2-methyl-1,2,3,4-tetrahydroisoquinolin-4-yl]phenyl}-1H-1,2,3-triazol-1-yl)-3,6,9,12,15-pentaoxaheptadec-1-yl]urea}hydrochloride] | 3.2 |  | 38 | 
CN1Cc2c(Cl)cc(Cl)cc2[C@H](c2cccc(-c3cc(NCCOCCOCCOCCNC(=O)NCCCCNC(=O)NCCOCCOCCOCCNc4cc(-c5cccc([C@@H]6CN(C)Cc7c(Cl)cc(Cl)cc76)c5)ncn4)ncn3)c2)C1 [Example 7-40, 1,1′-Butane-1,4-diylbis(3-{2-[2-(2-{2-[(6-{3-[(4S)-6,8-dichloro-2-methyl-1,2,3,4-tetrahydroisoquinolin-4-yl]phenyl}pyrimidin-4-yl)amino]ethoxy}ethoxy)ethoxy]ethyl}urea) trifluoroacetate] | 11 | 28 |  | 
CN1Cc2c(Cl)cc(Cl)cc2[C@H](c2cccc(-c3cn(CCOCCOCCOCCNC(=O)NCCN(CCCCN(CCNC(=O)NCCOCCOCCOCCn4cc(-c5cccc([C@@H]6CN(C)Cc7c(Cl)cc(Cl)cc76)c5)nn4)C(N)=O)C(N)=O)nn3)c2)C1.O=CO [Example 7-42, 3,3′-Butane-1,4-diylbis {3-[16-(4-{3-[(4S)-6,8-dichloro-2-methyl-1,2,3,4-tetrahydroisoquinolin-4-yl]phenyl}-1H-1,2,3-triazol-1-yl)-4-oxo-8,11,14-trioxa-3,5-diazahexadec-1-yl]urea}formate] | 5.5 |  |  | 29
CN1Cc2c(Cl)cc(Cl)cc2[C@H](c2cccc(-c3cn(CCOCCOCCOCCOCCNC(=O)NCCOCCOCCOCCOCCn4cc(-c5cccc([C@@H]6CN(C)Cc7c(Cl)cc(Cl)cc76)c5)nn4)nn3)c2)C1 [Example 7-43, 1,3-Bis[14-(4-{3-[(4S)-6,8-dichloro-2-methyl-1,2,3,4-tetrahydroisoquinolin-4-yl]phenyl}-1H-1,2,3-triazol-1-yl)-3,6,9,12-tetraoxatetradec-1-yl]urea hydrochloride] | 8.5 | 37 |  | 
CN1Cc2c(Cl)cc(Cl)cc2[C@H](c2cccc(-c3cn(CCOCCOCCOCCOCCNC(=O)Nc4ccc(NC(=O)NCCOCCOCCOCCOCCn5cc(-c6cccc([C@@H]7CN(C)Cc8c(Cl)cc(Cl)cc87)c6)nn5)cc4)nn3)c2)C1 [Example 7-45, 1,1′-Benzene-1,4-diylbis {3-[14-(4-{3-[(4S)-6,8-dichloro-2-methyl-1,2,3,4-tetrahydroisoquinolin-4-yl]phenyl}-1H-1,2,3-triazol-1-yl)-3,6,9,12-tetraoxatetradec-1-yl]urea}hydrochloride] | 5.7 | 29 |  | 
